Eight molecules from ChEMBL document CHEMBL2176945, “Novel TEMPO-PEG-RGDs conjugates remediate tissue damage induced by acute limb ischemia/reperfusion” (2012) can be followed below.

Structures are written as SMILES. The source made the active and inactive calls. The calls are words filed in the database; no cut-off is given here. Residues, ends and D or L forms follow the SMILES beside them. *: point of attachment. X1 = CC1(C)CC(C(=O)*)CC(C)(C)N1[O]

The subject of test [1] is Platelet. The test is described as follows: Antiplatelet activity against ADP-induced platelet aggregation in rabbit plasma at 100 nM for 120 mins by aggregometeric analysis. It is filed as functional. The conditions noted are these: Oryctolagus cuniculus.
The next test has as its system Aorta. The experiment in a line: Antioxidant activity in rat thoracic aortic strips assessed as free radical scavenging activity by measuring reversal of acetylcholine-induced relaxation. It is filed as functional, tissue-based.
Test [2] relates to Rattus norvegicus. The experiment in a line: Antithrombotic activity in Wistar rat model assessed as reduction of dry thrombus weight at 5 umol/kg after 15 mins. It is filed as functional, organism-based.
Test [3] has as its system Platelet. The test is described as follows: Antiplatelet activity against PAF-induced platelet aggregation in rabbit plasma at 100 nM for 120 mins by aggregometeric analysis. It is filed as functional. Conditions: Oryctolagus cuniculus.
Test [4] concerns Rattus norvegicus. The experiment in a line: Antithrombotic activity in Wistar rat model assessed as reduction of wet thrombus weight at 5 umol/kg after 15 mins. It is filed as functional.
Test [5] has as its system Rattus norvegicus. The experiment in a line: Antiischemic activity in Wistar rat myocardia assessed as protection against ischemic-reperfusion-induced tightly woven network of collagen and mild edema at 20 mg/kg, ip administered 15 minutes prior to induction of ischemia followed by administered 1 hr post reperfusion by using hematoxylin-eosin stain by Light microscopy analysis. It is filed as functional, organism-based. Further details: dose 20 mg/kg.

For test [6], the system named is Rattus norvegicus. The experiment in a line: Antiischemic activity in Wistar rat myocardia assessed as protection against ischemic-reperfusion-induced edema between wavy muscle fibre and surrounding blood vessels at 20 mg/kg, ip administered 15 minutes prior to induction of ischemia followed by administered 1 hr post reperfusion by using hematoxylin-eosin stain by light microscopy analysis. It is filed as functional, organism-based. Further details: dose 20 mg/kg.

Test [7] concerns Rattus norvegicus. The experiment in a line: Antiischemic activity against Wistar rat ischemic-reperfusion model assessed decrease in lipid peroxidation at 20 mg/kg, ip administered 15 minutes prior to induction of ischemia followed by administered 1 hr post reperfusion. In kind it is functional, organism-based. Further details: dose 20 mg/kg.
Test [8] deals with Rattus norvegicus. The experiment in a line: Antiischemic activity in Wistar rat skeleton muscle assessed as protection against ischemic-reperfusion-induced neutrophil accumulation at 20 mg/kg, ip administered 15 minutes prior to induction of ischemia followed by administered 1 hr post reperfusion by using hematoxylin-eosin staining by light microscopy analysis. The conditions noted are these: Muscle tissue. In kind it is functional, organism-based. Further details: dose 20 mg/kg.

Test [9] deals with Rattus norvegicus. The experiment in a line: Antiischemic activity in Wistar rat skeleton muscle assessed as protection against ischemic-reperfusion-induced interstitial edema at 20 mg/kg, ip administered 15 minutes prior to induction of ischemia followed by administered 1 hr post reperfusion by using Gomori trichrome staining by light microscopy analysis. It is filed as functional, organism-based. Further details: dose 20 mg/kg. Conditions: Muscle tissue.

The subject of test [10] is Rattus norvegicus. The experiment in a line: Antiischemic activity in Wistar rat myocardia assessed as protection against ischemic-reperfusion-induced pyknotic nuclei at 20 mg/kg, ip administered 15 minutes prior to induction of ischemia followed by administered 1 hr post reperfusion by using hematoxylin-eosin stain by light microscopy analysis. It is filed as functional, organism-based. Further details: dose 20 mg/kg.

Test [11] has as its system Rattus norvegicus. The test is described as follows: Antiischemic activity against Wistar rat ischemic-reperfusion model assessed decrease in SOD level in plasma at 20 mg/kg, ip administered 15 minutes prior to induction of ischemia followed by administered 1 hr post reperfusion. It is filed as functional, organism-based. Further details: dose 20 mg/kg.
Test [12] has as its system Rattus norvegicus. The test is described as follows: Antiischemic activity in Wistar rat skeleton muscle assessed as protection against ischemic-reperfusion-induced cell necrosis at 20 mg/kg, ip administered 15 minutes prior to induction of ischemia followed by administered 1 hr post reperfusion by using hematoxylin-eosin staining by light microscopy analysis. The conditions noted are these: Muscle tissue. Further details: dose 20 mg/kg. It is filed as functional, organism-based.

The subject of test [13] is Rattus norvegicus. The experiment in a line: Antiischemic activity in Wistar rat myocardia assessed as protection against ischemic-reperfusion-induced tightly woven network of collagen and mild edema between fibre at 20 mg/kg, ip administered 15 minutes prior to induction of ischemia followed by administered 1 hr post reperfusion by using modified NADH stain by light microscopy analysis. In kind it is functional, organism-based. Further details: dose 20 mg/kg.

Test [14] relates to Rattus norvegicus. The test is described as follows: Antiischemic activity in Wistar rat skeleton muscle assessed as protection against ischemic-reperfusion-induced muscle edema at 20 mg/kg, ip administered 15 minutes prior to induction of ischemia followed by administered 1 hr post reperfusion by using hematoxylin-eosin staining by light microscopy analysis. The conditions noted are these: Muscle tissue. It is filed as functional, organism-based. Further details: dose 20 mg/kg.

In test [15] the test system is Rattus norvegicus. The test is described as follows: Antiischemic activity against Wistar rat ischemic-reperfusion model assessed decrease in MDA level in plasma at 20 mg/kg, ip administered 15 minutes prior to induction of ischemia followed by administered 1 hr post reperfusion. It is filed as functional, organism-based. Further details: dose 20 mg/kg.
Test [16] has as its system Rattus norvegicus. The experiment in a line: Antiischemic activity in Wistar rat myocardia assessed as protection against ischemic-reperfusion-induced tightly woven network of collagen and mild edema between fibre at 20 mg/kg, ip administered 15 minutes prior to induction of ischemia followed by administered 1 hr post reperfusion by using modified gomori trichome staining by light microscopy analysis. It is filed as functional, organism-based. Further details: dose 20 mg/kg.

Test [17] deals with Rattus norvegicus. The experiment in a line: Antiischemic activity in Wistar rat myocardia assessed as protection against ischemic-reperfusion-induced contraction band at 20 mg/kg, ip administered 15 minutes prior to induction of ischemia followed by administered 1 hr post reperfusion by using hematoxylin-eosin stain by light microscopy analysis. In kind it is functional, organism-based. Further details: dose 20 mg/kg.

For test [18], the system named is Rattus norvegicus. The experiment in a line: Antiischemic activity in Wistar rat skeleton muscle assessed as protection against ischemic-reperfusion-induced necrotic and swollen cells at 20 mg/kg, ip administered 15 minutes prior to induction of ischemia followed by administered 1 hr post reperfusion by using Gomori trichrome staining by light microscopy analysis. In kind it is functional, organism-based. Further details: dose 20 mg/kg. The conditions noted are these: Muscle tissue.

Test [19] deals with Rattus norvegicus. The experiment in a line: Antiischemic activity in Wistar rat myocardia assessed as protection against ischemic-reperfusion-induced relaxed collagen fibre sourrounding indivisual myocardial tract at 20 mg/kg, ip administered 15 minutes prior to induction of ischemia followed by administered 1 hr post reperfusion by using modified gomori trichome stain by light microscopy analysis. It is filed as functional, organism-based. Further details: dose 20 mg/kg.

For test [20], the system named is Rattus norvegicus. The experiment in a line: Antiischemic activity in Wistar rat skeleton muscle assessed as protection against ischemic-reperfusion-induced membrane ruptures with dissolution of myofibrils at 20 mg/kg, ip administered 15 minutes prior to induction of ischemia followed by administered 1 hr post reperfusion by using Gomori trichrome staining by light microscopy analysis. Conditions: Muscle tissue. Further details: dose 20 mg/kg. It is filed as functional, organism-based.

Test [21] concerns Rattus norvegicus. The test is described as follows: Antiischemic activity in Wistar rat skeleton muscle assessed as protection against ischemic-reperfusion-induced irregular distribution of oxidative metabolism enzyme at 20 mg/kg, ip administered 15 minutes prior to induction of ischemia followed by administered 1 hr post reperfusion by using NADH staining by light microscopy analysis. Further details: dose 20 mg/kg. It is filed as functional, organism-based. Conditions: Muscle tissue.

Test [22] deals with Rattus norvegicus. The experiment in a line: Antiischemic activity in Wistar rat skeleton muscle assessed as protection against ischemic-reperfusion-induced ragged red fibrils formation at 20 mg/kg, ip administered 15 minutes prior to induction of ischemia followed by administered 1 hr post reperfusion by using modified NADH stain by Light microscopy analysis. In kind it is functional, organism-based. Further details: dose 20 mg/kg. The conditions noted are these: Muscle tissue.

Test [23] concerns Rattus norvegicus. The test is described as follows: Antiischemic activity against Wistar rat ischemic-reperfusion model assessed as wet/dry edema tissue ratio at 20 mg/kg, ip administered 15 minutes prior to induction of ischemia followed by administered 1 hr post reperfusion. In kind it is functional.

For `CC(C)[C@H](NC(=O)[C@H](CC(=O)O)NC(=O)CNC(=O)[C@H](CCCNC(=N)N)NC(=O)C1CC(C)(C)N([O])C(C)(C)C1)C(=O)O` (X1-RGDV-OH), the result in the test on Platelet [1], with Aorta and in the test on Platelet [3] was Active. Also, the Activity with Rattus norvegicus [2] worked out at 25.1 mg.
For the molecule `CC1(C)CC(C(=O)NCCOCCOCCOCCOCCOCCOCCOCCNC(=O)COCC(=O)N[C@@H](CCCNC(=N)N)C(=O)NCC(=O)N[C@@H](CC(=O)O)C(=O)N[C@@H](CO)C(=O)O)CC(C)(C)N1[O]`, the outcome in the test on Platelet [1], in the test with Aorta and in the test on Platelet [3] was Active. Moreover, the Wet thrombus weight in the test with Rattus norvegicus [4] was 23.6 mg.
Consider `CC1(C)CC(C(=O)N[C@@H](CCCNC(=N)N)C(=O)NCC(=O)N[C@@H](CC(=O)O)C(=O)N[C@@H](Cc2ccccc2)C(=O)O)CC(C)(C)N1[O]` (X1-RGDF-OH), for which the result in the test on Platelet [1], in the test on Aorta and in the test with Platelet [3] was Active. In addition, the Activity in the test on Rattus norvegicus [2] came to 22.3 mg.
In the case of `CC1(C)CC(C(=O)NCCOCCOCCOCCOCCOCCOCCOCCNC(=O)COCC(=O)N[C@@H](CCCNC(=N)N)C(=O)NCC(=O)N[C@@H](CC(=O)O)C(=O)N[C@@H](Cc2ccccc2)C(=O)O)CC(C)(C)N1[O]`, the outcome in the test with Rattus norvegicus [5], in the test with Rattus norvegicus [6], in the test on Rattus norvegicus [7], in the test with Rattus norvegicus [8], with Rattus norvegicus [9] and with Rattus norvegicus [10] was Active. Further, the result in the test with Rattus norvegicus [11], in the test on Rattus norvegicus [12], with Rattus norvegicus [13], in the test with Platelet [1], with Rattus norvegicus [14] and with Rattus norvegicus [15] was Active. Also, the result with Rattus norvegicus [16], with Rattus norvegicus [17], in the test on Rattus norvegicus [18], with Rattus norvegicus [19], with Rattus norvegicus [20] and in the test with Aorta was Active. The result with Rattus norvegicus [21], in the test with Rattus norvegicus [22] and in the test on Platelet [3] was Active. The Wet thrombus weight with Rattus norvegicus [4] came out at 20.7 mg. For the same molecule, the Ratio with Rattus norvegicus [23] was determined as 3.45.
In the case of `CC(=O)Oc1ccccc1C(=O)O` [ASPIRIN], the Activity in the test with Rattus norvegicus [4] is 27.6 mg.
For `CC1(C)CC(C(=O)N[C@@H](CCCNC(=N)N)C(=O)NCC(=O)N[C@@H](CC(=O)O)C(=O)N[C@@H](CO)C(=O)O)CC(C)(C)N1[O]` (X1-RGDS-OH), the result with Platelet [1], in the test with Aorta and with Platelet [3] was Active. For the same molecule, in the test with Rattus norvegicus [2], the Activity worked out at 25.9 mg.
As to `CC(C)[C@H](NC(=O)[C@H](CC(=O)O)NC(=O)CNC(=O)[C@H](CCCNC(=N)N)NC(=O)COCC(=O)NCCOCCOCCOCCOCCOCCOCCOCCNC(=O)C1CC(C)(C)N([O])C(C)(C)C1)C(=O)O`, the outcome in the test with Platelet [1], in the test with Aorta and in the test with Platelet [3] was Active. Besides, the Wet thrombus weight in the test on Rattus norvegicus [4] was found to be 24.7 mg.
Turning to `CC1(C)CC(O)CC(C)(C)N1[O]` [TEMPOL], in the test with Aorta, the outcome was Active. Besides, the Ratio in the test on Rattus norvegicus [23] (route intraperitoneal) turned out to be 4.49.
